From BigSolDB 2.1

O=C1CCCC(=O)O1
Conditions | solubility (mole fraction)
in acetic acid, 279.65 K | 0.0783
in acetic acid, 282.25 K | 0.0967
in acetic acid, 284.55 K | 0.119
in acetic acid, 287.05 K | 0.152
in acetic acid, 289.55 K | 0.183
in acetic acid, 291.95 K | 0.223
in acetic acid, 294.25 K | 0.27
in acetic acid, 296.65 K | 0.323
in acetic acid, 299.15 K | 0.376
in acetic acid, 302.15 K | 0.436
in acetic acid, 304.05 K | 0.502
in acetic acid, 306.25 K | 0.557
in acetyl acetate, 278.45 K | 0.153
in acetyl acetate, 282.45 K | 0.205
in acetyl acetate, 283.85 K | 0.231
in acetyl acetate, 285.45 K | 0.259
in acetyl acetate, 287.65 K | 0.299
in acetyl acetate, 290.55 K | 0.342
in acetyl acetate, 293.05 K | 0.388
in acetyl acetate, 296.95 K | 0.437
in acetyl acetate, 300.25 K | 0.502
in acetyl acetate, 304.05 K | 0.562
in tetrachloromethane, 282.25 K | 0.00064
in tetrachloromethane, 285.45 K | 0.00073
in tetrachloromethane, 288.05 K | 0.00097
in tetrachloromethane, 291.15 K | 0.00141
in tetrachloromethane, 293.95 K | 0.00182
in tetrachloromethane, 295.95 K | 0.00225
in tetrachloromethane, 300.25 K | 0.00268
in tetrachloromethane, 303.25 K | 0.00321
in tetrachloromethane, 306.25 K | 0.0039
in tetrachloromethane, 309.85 K | 0.00487
in tetrachloromethane, 312.95 K | 0.00544
in tetrachloromethane, 315.55 K | 0.00586
in tetrachloromethane, 318.25 K | 0.00619
in tetrachloromethane, 320.45 K | 0.00639
